Data from patent US10392363B2, “Methods for treating protozoan infections” (Neoculi Pty Ltd., priority 2014, dated 2019).

Assays:
[1] = Cell toxicity assay (WST-1); format: cell-based, mouse; details: mouse, RAW 264.7, 24 hours, read-out: GI50 macrophage
Method in brief: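 RAW 264.7 macrophages plated at 2×10^4 cells/ml, rested 2 h at 37 °C, then exposed to compounds (from DMSO) for 24 h. Metabolic activity read by WST-1 at 450 nm after 1 h; IC50 derived, selectivity index as macrophage IC50 divided by antiparasitic IC50.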

[2] = Exposure in male Swiss outbred mice following IV administration; format: in vivo
Description: The systemic exposures of NCL026, NCL195, NCL259 and NCL812 were studied in nonfasted male Swiss outbred mice weighing 26.2-32.1 g. Mice had access to food and water ad libitum throughout the pre- and post-dose sampling period. Each compound was administered IV via a bolus injection into the tail vein (vehicle 20% (v/v) DMSO in PEG400, 1 mL/kg dose volume, n=8 mice per compound). […] A maximum of two samples were obtained from each mouse, with samples being taken either via submandibular bleed (approximately 120 μL; conscious sampling) or terminal cardiac puncture (0.6 mL; while mice were anaesthetised using inhaled Isoflurane). No urine samples were collected as mice were housed in bedded cages during the study. Blood was collected directly into polypropylene Eppendorf tubes containing heparin as anticoagulant, and stabilisation cocktail (containing Complete® (a protease inhibitor cocktail with EDTA) and potassium fluoride) to minimise the potential for ex vivo degradation of the test compounds in blood/plasma samples. Once collected, blood samples were centrifuged immediately, supernatant plasma was removed, and stored at −80° C. until analysis by LC-MS using methods standard in the art. Each compound was administered in a vehicle composed of 20% (v/v) DMSO in PEG400. Formulations were prepared by dissolving the compounds in DMSO prior to addition of PEG400. Formulations were not filtered prior to dosing and were administered to mice within 2.5 h of preparation. […] The dose administered to each mouse was calculated on the basis of the measured concentration in the IV formulation, the dose volume and individual mouse body weight. Plasma concentration versus time data were analysed using non-compartmental methods (WinNonlin Version 6.3.0.395). Standard calculations for each pharmacokinetic parameter were calculated using standard methods in the art.

[3] = tested on: Giardia duodenalis trophozoites; experiment: Resazurin reduction assay (Example 3); format: cell-based; details: 42 hours, then 6 hours with Alamarblue
Description: Giardia trophozoites were grown until confluent. The media was replaced with fresh media and they were cold shocked for 40 minutes (as above). Cells were diluted to a concentration of ˜500 000 cells/ml and 100 μl were added to each well of the assay plate (except media only control). The assay was incubated in an anaerobic environment (candle jar) for 42 hours at 37° C. […] After incubation the absorbance of each sample was read at 570 and 630 nm. The percent reduction of resazurin (Alamarblue™) was calculated and data was analysed with GraphPad Prism v6 software. Assay set-up: the assay was performed in 96 well plates in a total volume of 200 μl. 100 μl of NCL812 or NCL062 (concentration of 25.6 mg/ml in DMSO) or metronidazole (concentration 5 mg/ml in DMSO) stock was added to 9.9 ml of TYI-S-33 medium, then serially diluted 1:2 in the same medium. Cells were added as above.

Question: What does the source list for N=C(N/N=C/c1ccc(Cl)cc1)N/N=C/c1ccc(Cl)cc1 [NCL812, 1,3-bis[(E)-(4-chlorophenyl)methyleneamino]guanidine]?
Answer: GI50 at 24 h [1]: 14.8 ± 1.34 µM; adverse reactions after IV dosing ([2]; IV, 5 mg/kg, one mouse): abnormal behaviour (frantic, hyperactive); AUC0-inf ([2]; male, Swiss outbred, mouse, in vivo, IV 5 mg/kg, values marked a, b are approximations, read-out: AUC0-inf): 27.9 µM·h; Vd ([2]; male, Swiss outbred, mouse, in vivo, IV 5 mg/kg, values marked a, b are approximations, read-out: Plasma Vss): 5.9 L/kg; clearance ([2]; male, Swiss outbred, mouse, plasma, IV 5 mg/kg, values marked a, b are approximations, read-out: Plasma CL): 9.5 mL/min/kg; half-life ([2]; male, Swiss outbred, mouse, IV 5 mg/kg, plasma, value marked b is an approximation, read-out: Apparent t1/2 (converted)): 8.2 h; metabolic activity of the trophozoites (percentage of reduction of resazurin) [3]: reduction in the metabolic activity
